Measured values from US4816474A, “Amino substituted thienothiopyran derivatives, composition containing them, and method of using them to stimulate presynaptic dopamine receptors” (Ciba-Geigy Corporation, priority 1987, dated 1989).
Structures can show the parent of a compound that is named as a salt.

Tests used:
[1] = test system: presynaptic dopamine receptor (dopamine autoreceptor); assay: GBL model in the rat: in-vivo presynaptic dopamine agonist (dopamine autoreceptor agonist) activity, inhibition of GBL-induced DOPA accumulation; details: dose inhibiting DOPA accumulation by 50%
Procedure: The in-vivo presynaptic dopamine agonist activity (also called dopamine autoreceptor agonist activity) is determined in the rat gamma-butyrolactone (GBL) model by a modification of the procedure described by Walters and Roth, Naunyn Schmiedeberg's Arch. Pharmacol. 296, 5 (1976). In this model, a presynaptic dopamine agonist inhibits the GBL-induced accumulation of the dopamine precursor DOPA in the brain after pretreatment with 3-hydroxybenzylhydrazine (NDS-1015), a DOPA decarboxylase inhibitor.
Test compounds are dissolved in 0.9% saline, with sodium metabisulfite to prevent oxidation, if required. Animals are treated with i.p. injections of solutions of test compounds or saline, followed by gamma-butyrolactone (GBL, 750 mg/kg i.p.) or saline for control animals 15 minutes later, and finally with NSD-1015 (100 mg/kg i.p.) 5 minutes after the administration of GBL. Thirty minutes after the administration of NSD-1015, animals are sacrificed, brains are removed, and striatae are isolated, then frozen at -70° C. until deproteinization, extraction and analysis. The ED50 (dose at which the DOPA accumulation is inhibited by 50%) values are determined by plotting the percent inhibition of DOPA accumulation versus log10 of the dose of test compound administered. The same method is also applicable to oral administration of the test compounds.

[2] = target: presynaptic dopamine receptor; assay: 3H-ADTN presynaptic dopamine receptor binding assay (displacement of 3H-ADTN from calf caudate nucleus membranes); details: inhibition of specific binding of 0.2 nM 3H-ADTN by 50%, 60 min, 25° C.
Procedure: The presynaptic dopamine receptor binding properties indicative of the presynaptic dopamine receptor regulatory, e.g. agonistic activity, of the compounds of the invention can be determined in the dopamine binding assay in vitro by the following method involving the displacement of the dopamine agonist 2-amino-6,7-dihydroxy-1,2,3,4-tetrahydronaphthalene (^3 H-ADTN) from membranes of calf-caudate nucleus.
In the binding assay, triplicate 2 ml samples (equivalent to 5 mg/ml of brain tissue) of the calf brain caudate nucleus membrane suspension are incubated for 60 minutes at 25° C. with 0.2 nM ^3 H-ADTN without or in the presence of various concentrations of test compound in solvent. The reaction is terminated by filtering with 5 ml of cold 50 mM Tris-HCl buffer pH 7.7. The filters are placed in scintillation vials with 5 ml of scintillation solution, disrupted by vigorous mechanical shaking for 90 minutes, and counted for radioactivity.
The IC50 values which represent the concentration of test compounds required to inhibit the specific binding of 0.2 nM ^3 H-ADTN by 50% are determined graphically.

| SMILES | ED50 in the GBL model ([1]; i.p.) | ED50 in the GBL model ([1]; p.o.) [mg/kg] | IC50 [2] [nM] |
| --- | --- | --- | --- |
| CCCN(CCC)C1CSc2sccc2C1 (stereo not drawn) [5-dipropylamino-5,6-dihydro-4H-thieno[2,3-b]thiopyran] | about 2.6 mg/kg | ~5.6 | – |
| CCCN(CCC)C1CSc2sccc2C1 (stereo not drawn) [N,N-dipropyl-5,6-dihydro-4H-thieno[2,3-b]thiopyran-5-amine hydrochloride] | – | – | ~150 |
